Laboratory results as given in patent US7288273B1, “Gallotannins and ellagitannins as regulators of cytokine release” (The Penn State Research Foundation, priority 2000, dated 2007).

Experiments:
[1] = tested on: IL-1β secretion from h-PBMC's; assay: IL-1β release from h-PBMC's, ELISA; assay type: cell-based, human; details: for IL-1β secreted in the presence of 17c-20c: h-PBMC's 2nd subject, ± SD
Procedure, shortened: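 Human peripheral blood mononuclear cells from healthy donors were isolated, checked for viability by Trypan Blue exclusion, and set at 1×10^6 cells/well in 0.5 mL RPMI. The tannin was added from an HBSS stock, and plates were incubated at 37° C. in a humidified 5% CO2 atmosphere. Supernatants were taken after centrifugation at 400 g, and secreted IL-1β was quantified by a commercial ELISA. LPS was the positive control and untreated cells the negative control.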

[2] = tested on: LPS induced TNF-α secretion from h-PBMC's; assay: Inhibition of LPS induced TNF-α secretion from h-PBMC's; assay type: cell-based, human; details: for TNF-α secreted in the presence of LPS and 17c-20c: LPS 5 μg/mL, compound 10 μg/mL added after 45 minutes, h-PBMC's 3rd subject; for TNF-α secreted in the presence of LPS and 17c-20c / TNF-α secreted in the presence of LPS and 19c / 20c / TNF-α secreted in the presence of LPS and 18c-20c: ± SD; for TNF-α secreted in the presence of LPS and 19c / 20c: 8 h incubation; for TNF-α secreted in the presence of LPS and 19c / 20c / TNF-α secreted in the presence of LPS and 18c-20c: 4th subject
Procedure, shortened: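 Human PBMCs stimulated with LPS (5 or 10 μg/mL), compounds added at varying concentrations 45 min after LPS or simultaneously; supernatants harvested after 8 h. Secreted TNF-α normalized as percent of maximum secretion with LPS alone.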

## O=C(OC[C@H]1O[C@@H](OC(=O)c2ccc(-c3ccc(C(=O)O[C@@H]4O[C@H](COC(=O)c5cc(O)c(O)c(O)c5)[C@@H](OC(=O)c5cc(O)c(O)c(O)c5)[C@H](OC(=O)c5cc(O)c(O)c(O)c5)[C@H]4OC(=O)c4cc(O)c(O)c(O)c4)cc3)cc2)[C@H](OC(=O)c2cc(O)c(O)c(O)c2)[C@@H](OC(=O)c2cc(O)c(O)c(O)c2)[C@@H]1OC(=O)c1cc(O)c(O)c(O)c1)c1cc(O)c(O)c(O)c1 [Compound 19c, 1,1′-O-2.2′,3,3′,4,4′,6,6′-Tetrakis(3,4,5-trihyroxybenzoyl)-β,β′-D,D′-glucopyranosylbiphenyl-4.4′-diester]
[1]; compound 0.6 μM
  IL-1β secreted in the presence of 17c-20c: 54.2 ± 57.5 pg/mL
[1]; compound 2.8 μM
  IL-1β secreted in the presence of 17c-20c: 60.9 ± 58.6 pg/mL
[1]; compound 5.6 μM
  IL-1β secreted in the presence of 17c-20c: 14.5 ± 25.2 pg/mL
[1]; compound 11.2 μM
  IL-1β secreted in the presence of 17c-20c: 9.4 ± 7.0 pg/mL
[1]; compound 16.8 μM
  IL-1β secreted in the presence of 17c-20c: 41.3 ± 14.8 pg/mL
[1]; compound 22.5 μM
  IL-1β secreted in the presence of 17c-20c: 23.2 ± 18.0 pg/mL
[1]; compound 28.1 μM
  IL-1β secreted in the presence of 17c-20c: 41.3 ± 6.0 pg/mL
[1]; h-PBMC's
  IL-1β secretion from h-PBMC's, in words: lowest amounts of IL-1β production
[2]; time 1 h
  TNF-α secreted in the presence of LPS and 17c-20c: 328.2 ± 61.5 pg/mL
[2]; time 4 h
  TNF-α secreted in the presence of LPS and 17c-20c: 1880.0 ± 20.1 pg/mL
[2]; time 8 h
  TNF-α secreted in the presence of LPS and 17c-20c: 1921.5 ± 399.8 pg/mL
[2]; time 12 h
  TNF-α secreted in the presence of LPS and 17c-20c: 2229.3 ± 353.1 pg/mL
[2]; time 16 h
  TNF-α secreted in the presence of LPS and 17c-20c: 2561.2 ± 718.8 pg/mL
[2]; time 24 h
  TNF-α secreted in the presence of LPS and 17c-20c: 2146.9 ± 69.3 pg/mL
[2]; LPS 10 μg/mL, substrate added after 45 minutes, 8 hours
  maximum inhibition of LPS induced TNF-α secretion: 25%
[2]; compound 0.6 μM added 45 minutes after LPS 1 μg/mL
  TNF-α secreted in the presence of LPS and 19c / 20c: 85.1 ± 10.3 % max. response
[2]; compound 0.6 μM added 45 minutes after LPS 10 μg/mL, 8 hours
  TNF-α secreted in the presence of LPS and 18c-20c: 114.3 ± 11.9 % max. response
[2]; compound 1.7 μM added 45 minutes after LPS 1 μg/mL
  TNF-α secreted in the presence of LPS and 19c / 20c: 78.3 ± 9.1 % max. response
[2]; compound 2.8 μM added 45 minutes after LPS 10 μg/mL, 8 hours
  TNF-α secreted in the presence of LPS and 18c-20c: 83.5 ± 26.1 % max. response
[2]; compound 3.4 μM added 45 minutes after LPS 1 μg/mL
  TNF-α secreted in the presence of LPS and 19c / 20c: 81.8 ± 15.9 % max. response
[2]; compound 5.6 μM added 45 minutes after LPS 1 μg/mL
  TNF-α secreted in the presence of LPS and 19c / 20c: 57.5 ± 14.1 % max. response
[2]; compound 5.6 μM added 45 minutes after LPS 10 μg/mL, 8 hours
  TNF-α secreted in the presence of LPS and 18c-20c: 79.4 ± 15.1 % max. response
[2]; compound 11.2 μM added 45 minutes after LPS 1 μg/mL
  TNF-α secreted in the presence of LPS and 19c / 20c: 57.4 ± 7.3 % max. response
[2]; compound 11.2 μM added 45 minutes after LPS 10 μg/mL, 8 hours
  TNF-α secreted in the presence of LPS and 18c-20c: 92.4 ± 21.4 % max. response
[2]; compound 22.4 μM added 45 minutes after LPS 10 μg/mL, 8 hours
  TNF-α secreted in the presence of LPS and 18c-20c: 73.0 ± 12.6 % max. response
